Reference: patent US12486218B2, “Compounds advantageous in the treatment of central nervous system diseases and disorders” (AurimMed Pharma, Inc., priority 2008, dated 2025)
Like-named read-outs stand apart in the source and are kept apart here.

Legend:
mice [1] = assay: Subcutaneous Metrazol Seizure threshold (s.c. MET) test, mice i.p.; type: in vivo; details: for activity in the s.c. MET test: mice, at 300 mg/kg; for s.c. MET, fraction of animals: mice i.p.
mice [2] = assay: Maximal Electroshock Seizure (MES) test, mice i.p.; type: in vivo; details: for MES, fraction of animals: mice i.p.; for activity in the MES test: mice
mice [3] = assay: 6 Hz (minimal clonic seizure) model, mice i.p.; type: in vivo; details: for 6 Hz (32 mA), fraction of animals: mice i.p.; for activity in the 6 Hz (minimal clonic seizure) model: mice
SMN2 promoter = SMN2 promoter β-lactamase reporter assay in NSC34 motor neuron-like cells; type: cell-based; details: for SMN2 promoter activity: treatment for 19 hours at a concentration of 1 μM; for Promoter (SMN2 promoter test, summary YES/NO): Table 13 summary
Method: FIG. 30 illustrates a screen for SMN2 expression of a number of compounds described herein.
SMN2 promoter activity was measured using NSC34 motor neuron-like cells stably transfected with a β-lactamase (BLA) reporter gene under the control of a 3.4-kilobase fragment of the SMN2 promoter. D156844 was used as a positive control for this assay.

rats = assay: Pilocarpine-induced Status Epilepticus in Rats (prevention; intervention @ 30 min); details: for Prevention, Protection: rats, pilocarpine-induced status epilepticus
Method: The animal testing was performed using the protocols developed in the Anticonvulsant Screening Program (ASP) at the National Institute of Neurological Disorders and Stroke (NINDS), National Institutes of Health (NIH).

[4] = Rattus norvegicus, read-out: Prevention, Protection
[5] = Rattus norvegicus, 0.5 h, read-out: Intervention @ 30 min, Protection

CNC(=O)CC(C)c1ccc(OC(F)(F)F)cc1 (stereo not shown) [BC, N-Methyl-3-(4-trifluoromethoxyphenyl)-butyramide]
activity in the s.c. MET test (mice [1]): activity

CC[C@H](NC(=O)[C@@H]1C[C@H]1c1ccccc1)C(N)=O (mixture of isomers) [Compound Q-1, trans-2-Phenylcyclopropane-carboxylic acid-((S)-1-carbamoyl-propyl)amide]
activity in the s.c. MET test (mice [1]): activity | MES, fraction of animals (mice [2]; 100 mg/kg @ 0.5 hr): 2/3 | MES, fraction of animals (mice [2]; 100 mg/kg @ 4.0 hr): 1/3 | activity in the MES test (mice [2]; at 300 mg/kg): activity | 6 Hz (32 mA), fraction of animals (mice [3]; 50 mg/kg @ 0.25 hr): 1/4 @0.25 | 6 Hz (32 mA), fraction of animals (mice [3]; 100 mg/kg @ 0.25 hr): 4/4 | 6 Hz (32 mA), fraction of animals (mice [3]; 100 mg/kg @ 0.5 hr): 3/4 | 6 Hz (32 mA), fraction of animals (mice [3]; 100 mg/kg @ 1.0 hr): 4/4 | 6 Hz (32 mA), fraction of animals (mice [3]; 100 mg/kg @ 2.0 hr): 1/4 | activity in the 6 Hz (minimal clonic seizure) model (mice [3]; at 100 mg/kg): activity

CC(CC(=O)N1CCC(C(N)=O)CC1)c1ccc(OC(F)(F)F)cc1 (stereo not shown) [BN, 1-[3-(4-Trifluoromethoxy-phenyl)-butyryl]-piperidine-4carboxylic acidamide]
activity in the MES test (mice [2]; at 300 mg/kg): activity | SMN2 promoter assay, evidence of activity (may warrant further study) (SMN2 promoter; NSC34 BLA reporter cells): show evidence of activity

CC(O)(CC(N)=O)c1ccc(OC(F)(F)F)cc1 (stereo not shown) [Compound CC, 3-hydroxy-3-(4(trifluoromethoxy)-phenyl)butanamide]
responders at 200 mg/kg (rats; [4]): 100% | MES, fraction of animals (mice [2]; 100 mg/kg @ 0.5 hr): 3/3 | MES, fraction of animals (mice [2]; 100 mg/kg @ 4.0 hr): 2/3

Cc1nccnc1C(C)CC(N)=O (racemic) [CZ]
6 Hz (32 mA), fraction of animals (mice [3]; 100 mg/kg @ 0.25 hr): 1/4 @ | 6 Hz (32 mA), fraction of animals (mice [3]; 100 mg/kg @ 0.5 hr): 1/4 @ | 6 Hz (32 mA), fraction of animals (mice [3]; 100 mg/kg @ 2.0 hr): hrs and 2/4

NC(=O)C1CC1(c1ccccc1)c1ccccc1 (stereo not shown) [BB, 2,2-Diphenyl-cyclopropanecarboxylicacid amide]
activity in the 6 Hz (minimal clonic seizure) model (mice [3]; at 100 mg/kg): activity | SMN2 promoter activity (SMN2 promoter): increased SMN2 promoter activity

NC(=O)CC(c1ccc2c(c1)OCCO2)C1CC1 (stereo not shown) [AP, 3-Cyclopropyl-3-(2,3dihydro-benzo[1,4]dioxin-6-yl)propionamide]
responders at 600 mg/kg (rats; [5]): 75% | responders at 450 mg/kg (rats; [4]): 75% | activity in the s.c. MET test (mice [1]): activity | activity in the MES test (mice [2]; at 300 mg/kg): activity

CC(C)C[C@@H](NC(=O)CC(C)c1ccc(OC(F)(F)F)cc1)C(N)=O (stereo partly drawn) [BP, (R)-4-Methyl-2-[3-(4-trifluoromethoxy-phenyl)-butyrylamino]-pentanoic acid amide]
6 Hz (32 mA), fraction of animals (mice [3]; 100 mg/kg @ 0.25 hr): 1/4 @ 0.25

CC(CC(N)=O)Oc1ccc(C#N)cc1 (stereo not shown) [Compound O, 3-(4-Cyanophenoxy)butyramide]
responders at 450 mg/kg (rats; [4]): 50%

Cc1ccc(C(C)CC(N)=O)c(C)n1 (racemic) [DF]
6 Hz (32 mA), fraction of animals (mice [3]; 100 mg/kg @ 2.0 hr): 1/4 @ 2.0 | 6 Hz (32 mA), fraction of animals (mice [3]; 100 mg/kg @ 4.0 hr): 1/4 @ 2.0

CC(C)c1ccc(C(C)CC(N)=O)cc1 (stereo not shown) [Compound AW, 3-(4-Isopropylphenyl)butyramide]
responders at 200 mg/kg (rats; [5]): 25% | responders at 450 mg/kg (rats; [4]): 75% | activity in the MES test (mice [2]; at 300 mg/kg): activity | 6 Hz (32 mA), fraction of animals (mice [3]; 200 mg/kg @ 0.25 hr): 4/4, 4/4 @ | 6 Hz (32 mA), fraction of animals (mice [3]; 200 mg/kg @ 0.5 hr): 4/4, 4/4 @ | activity in the 6 Hz (minimal clonic seizure) model (mice [3]; at 200 mg/kg): activity | SMN2 promoter activity (SMN2 promoter): increased SMN2 promoter activity

Cc1cnc(C(C)CC(N)=O)c(C)n1 (racemic) [DD]
6 Hz (32 mA), fraction of animals (mice [3]; 100 mg/kg @ 0.5 hr): 1/4 @ 0.5 hr, | Promoter (SMN2 promoter test, summary YES/NO) (SMN2 promoter): YES | SMN2 promoter activity (SMN2 promoter): increased SMN2 promoter activity

CC(CC(N)=O)c1ccc(Cl)c(Cl)c1 (stereo not shown) [BW, 3-[3,4-dichloro-phenyl]butyramide]
s.c. MET, fraction of animals (mice [1]; 30 mg/kg @ 4.0 hr): 1/1 @ 4.0 | s.c. MET, fraction of animals (mice [1]; 100 mg/kg @ 4.0 hr): 1/1 @ 4.0 | MES, fraction of animals (mice [2]; 100 mg/kg @ 0.5 hr): 1/3 @

CC(CC(N)=O)c1cccc(F)c1 (stereo not shown) [Compound D, 3-(3-Fluorophenyl)butyramide]
responders at 400 mg/kg (rats; [5]): 75% | responders at 200 mg/kg (rats; [4]): 100% | activity in the s.c. MET test (mice [1]): activity | activity in the MES test (mice [2]; at 300 mg/kg): activity

CC(CC(=O)N[C@@H](C)C(N)=O)c1ccc(OC(F)(F)F)cc1 (stereo partly drawn) [BS, N-((S)-1-Carbamoyl-ethyl)-3-(4-trifluoromethoxy-phenyl)-butyramide]
activity in the MES test (mice [2]; at 300 mg/kg): activity | 6 Hz (32 mA), fraction of animals (mice [3]; 100 mg/kg @ 1.0 hr): 1/4 @ 1.0

COc1ccc(C2(CC(N)=O)CCCC2)cc1 [AZ]
SMN2 promoter activity (SMN2 promoter): increased SMN2 promoter activity

NC(=O)CC1(c2ccc(Cl)cc2)CCCCC1 [AK]
MES, fraction of animals (mice [2]; 100 mg/kg @ 0.25 hr): 3/4 | MES, fraction of animals (mice [2]; 100 mg/kg @ 2.0 hr): 1/4 | 6 Hz (32 mA), fraction of animals (mice [3]; 100 mg/kg @ 0.25 hr): 4/4 | 6 Hz (32 mA), fraction of animals (mice [3]; 100 mg/kg @ 0.5 hr): 3/4 | 6 Hz (32 mA), fraction of animals (mice [3]; 100 mg/kg @ 1.0 hr): 1/4 @

CC(CC(N)=O)c1cnccn1 (racemic) [DC]
Promoter (SMN2 promoter test, summary YES/NO) (SMN2 promoter): YES | SMN2 promoter activity (SMN2 promoter): increased SMN2 promoter activity

COc1ccc(C(C)CC(N)=O)cn1 (racemic) [CI]
6 Hz (32 mA), fraction of animals (mice [3]; 100 mg/kg @ 0.25 hr): 1/4 @ 0.25 hr

Cc1ccc(C(C)CC(N)=O)cn1 (racemic) [CH]
6 Hz (32 mA), fraction of animals (mice [3]; 50 mg/kg @ 0.25 hr): 1/4, 1/4 | 6 Hz (32 mA), fraction of animals (mice [3]; 50 mg/kg @ 0.5 hr): 1/4, 1/4

CC(C)C[C@H](NC(=O)[C@@H]1C[C@H]1c1ccccc1)C(N)=O (mixture of isomers) [Compound Q, trans-2-Phenylcyclopropane-carboxylic acid-((S)-1-carbamoyl-3-methylbutyl)amide]
activity in the 6 Hz (minimal clonic seizure) model (mice [3]; at 300 mg/kg): activity

CC[C@H](NC(=O)CC(C)c1ccc(OC(F)(F)F)cc1)C(N)=O (stereo partly drawn) [BR, N-((S)-1-Carbamoyl-propyl)-3-(4-trifluoromethoxy-phenyl)-butyramide]
activity in the MES test (mice [2]; at 100 mg/kg): activity | 6 Hz (32 mA), fraction of animals (mice [3]; 100 mg/kg @ 0.5 hr): 1/4 @ 0.5

CC(C)C(CC(N)=O)c1ccc(Cl)cc1 (stereo not shown) [AR, 3-(4-Chloro-phenyl)-4-methyl-pentanoic-acid-amide]
activity in the s.c. MET test (mice [1]): activity | activity in the MES test (mice [2]; at 300 mg/kg): activity | 6 Hz (32 mA), fraction of animals (mice [3]; 100 mg/kg @ 0.25 hr): 3/4 | 6 Hz (32 mA), fraction of animals (mice [3]; 100 mg/kg @ 0.5 hr): 2/4 | SMN2 promoter assay, evidence of activity (may warrant further study) (SMN2 promoter; NSC34 BLA reporter cells): show evidence of activity

CCNC(=O)CC(C)c1ccc(OC(F)(F)F)cc1 (stereo not shown) [BF, N-Ethyl-3-(4-trifluoromethoxy-phenyl)-butyramide]
responders at 200 mg/kg (rats; [4]): 88% | activity in the s.c. MET test (mice [1]): activity | activity in the MES test (mice [2]; at 300 mg/kg): activity | 6 Hz (32 mA), fraction of animals (mice [3]; 100 mg/kg @ 0.25 hr): 3/4 | 6 Hz (32 mA), fraction of animals (mice [3]; 100 mg/kg @ 0.5 hr): 4/4 | 6 Hz (32 mA), fraction of animals (mice [3]; 100 mg/kg @ 1.0 hr): 2/4 | 6 Hz (32 mA), fraction of animals (mice [3]; 100 mg/kg @ 2.0 hr): 3/4

CCC(CC(N)=O)c1ccc(OC)cc1 (stereo not shown) [AB, 3-(4-Methoxy-phenyl)-pentanoicacid amide]
responders at 450 mg/kg (rats; [4]): 100%

CCc1nccnc1C(C)CC(N)=O (racemic) [DB]
6 Hz (32 mA), fraction of animals (mice [3]; 100 mg/kg @ 4.0 hr): 1/4 @ 4.0 hrs. | SMN2 promoter activity (SMN2 promoter): increased SMN2 promoter activity

Cc1nc2ccccc2nc1C(C)CC(N)=O (racemic) [DE]
6 Hz (32 mA), fraction of animals (mice [3]; 100 mg/kg @ 0.25 hr): 1/4 @ | 6 Hz (32 mA), fraction of animals (mice [3]; 100 mg/kg @ 0.5 hr): 1/4 @

CCOc1ccc(C(C)CC(N)=O)cc1 (racemic) [CA]
Prevention, Protection (rats; dose 600 mg/kg): 100% | activity in the 6 Hz (minimal clonic seizure) model (mice [3]; at 100 mg/kg): activity | Promoter (SMN2 promoter test, summary YES/NO) (SMN2 promoter): YES | SMN2 promoter activity (SMN2 promoter): increased SMN2 promoter activity

COc1ccc(C(C)CC(N)=O)cc1Cl (stereo not shown) [J, 3-(3-chloro-4-methoxy-phenyl)butyramide]
responders at 600 mg/kg (rats; [5]): 38% | responders at 600 mg/kg (rats; [4]): 75% | activity in the s.c. MET test (mice [1]): activity

CC(C)Oc1ccc(C(C)CC(N)=O)cc1 (racemic) [CB]
Prevention, Protection (rats; dose 200 mg/kg): 100% | MES, fraction of animals (mice [2]; 100 mg/kg @ 0.25 hr): 3/3 | MES, fraction of animals (mice [2]; 100 mg/kg @ 1.0 hr): 1/3

CC(CC(N)=O)c1ccc2c(c1)OCCO2 (stereo not shown) [K, 3-(3,4-ethylenedioxy-phenyl)butyramide]
responders at 600 mg/kg (rats; [5]): 38% | responders at 300 mg/kg (rats; [4]): 50% | SMN2 promoter assay, particularly strong hits (SMN2 promoter; NSC34 BLA reporter cells): particularly strong hits | Promoter (SMN2 promoter test, summary YES/NO) (SMN2 promoter): YES | SMN2 promoter activity (SMN2 promoter): increased SMN2 promoter activity

CC(CC(=O)N1CCOCC1)c1ccc(OC(F)(F)F)cc1 (stereo not shown) [BI, 1-Morpholin-4-yl-3-(4-trifluoromethoxy-phenyl)-butan-1-one]
activity in the s.c. MET test (mice [1]): activity | 6 Hz (32 mA), fraction of animals (mice [3]; 50 mg/kg @ 0.25 hr): 2/4 | 6 Hz (32 mA), fraction of animals (mice [3]; 50 mg/kg @ 0.5 hr): 1/4
